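Results reflect a 48-hour exposure of cells in 96-well plates to compound at five concentrations. Abbreviation: GI50, concentration required for 50% inhibition of growth. TGI is the concentration that stops growth completely.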
Key:
Test in all cases: growth of human tumour cells (NCI), 48 h
A549 NSCLC = tested on: A549 NSCLC
HCC-2998 colon = tested on: HCC-2998 colon
SK-MEL-28 melanoma = tested on: SK-MEL-28 melanoma
MALME-3M melanoma = tested on: MALME-3M melanoma
SK-MEL-5 melanoma = tested on: SK-MEL-5 melanoma
OVCAR-3 ovarian = tested on: OVCAR-3 ovarian
HCT-116 colon = tested on: HCT-116 colon
K-562 leukemia = tested on: K-562 leukemia
T-47D breast = tested on: T-47D breast
SW-620 colon = tested on: SW-620 colon
MOLT-4 leukemia = tested on: MOLT-4 leukemia
MDA-MB-468 breast = tested on: MDA-MB-468 breast
MCF7 breast = tested on: MCF7 breast
PC-3 prostate = tested on: PC-3 prostate
BT-549 breast = tested on: BT-549 breast
HL-60(TB) leukemia = tested on: HL-60(TB) leukemia
SNB-19 CNS = tested on: SNB-19 CNS
SF-295 CNS = tested on: SF-295 CNS
DU-145 prostate = tested on: DU-145 prostate
SNB-75 CNS = tested on: SNB-75 CNS
HT29 colon = tested on: HT29 colon
UO-31 renal = tested on: UO-31 renal
MDA-MB-435 = tested on: MDA-MB-435
CCRF-CEM leukemia = tested on: CCRF-CEM leukemia
UACC-62 melanoma = tested on: UACC-62 melanoma
OVCAR-4 ovarian = tested on: OVCAR-4 ovarian
NCI-H522 lung = tested on: NCI-H522 lung
SF-268 CNS = tested on: SF-268 CNS
UACC-257 melanoma = tested on: UACC-257 melanoma
ACHN renal = tested on: ACHN renal
SK-OV-3 ovarian = tested on: SK-OV-3 ovarian
RXF 393 renal = tested on: RXF 393 renal
U251 CNS = tested on: U251 CNS
KM12 colon = tested on: KM12 colon
SF-539 CNS = tested on: SF-539 CNS
A498 renal = tested on: A498 renal
LOX IMVI melanoma = tested on: LOX IMVI melanoma
OVCAR-8 ovarian = tested on: OVCAR-8 ovarian
NCI-H226 lung = tested on: NCI-H226 lung
786-0 renal = tested on: 786-0 renal
SR leukemia = tested on: SR leukemia
CAKI-1 renal = tested on: CAKI-1 renal
SN12C renal = tested on: SN12C renal
HOP-92 NSCLC = tested on: HOP-92 NSCLC
M14 melanoma = tested on: M14 melanoma
NCI-H23 lung = tested on: NCI-H23 lung
EKVX NSCLC = tested on: EKVX NSCLC
HS 578T breast = tested on: HS 578T breast
NCI/ADR-RES ovarian = tested on: NCI/ADR-RES ovarian
RPMI-8226 leukemia = tested on: RPMI-8226 leukemia
IGROV1 ovarian = tested on: IGROV1 ovarian
MDA-MB-231 breast = tested on: MDA-MB-231 breast
TK-10 renal = tested on: TK-10 renal
HCT-15 colon = tested on: HCT-15 colon
SK-MEL-2 melanoma = tested on: SK-MEL-2 melanoma
NCI-H460 lung = tested on: NCI-H460 lung
OVCAR-5 ovarian = tested on: OVCAR-5 ovarian
HOP-62 NSCLC = tested on: HOP-62 NSCLC
COLO 205 colon = tested on: COLO 205 colon

Compound: C=C1CCC2C3(C)COC(c4ccc(F)cc4)OC3CCC2(C)C1C/C=C1/C(=O)OCC1O (configuration not stated)
- GI50 (A549 NSCLC): 3.07 µM
- TGI (A549 NSCLC): 13.1 µM
- GI50 (HCC-2998 colon): 2.67 µM
- TGI (HCC-2998 colon): 8.69 µM
- GI50 (SK-MEL-28 melanoma): 1.94 µM
- TGI (SK-MEL-28 melanoma): 4.02 µM
- GI50 (MALME-3M melanoma): 2.06 µM
- TGI (MALME-3M melanoma): 5.16 µM
- GI50 (SK-MEL-5 melanoma): 2.73 µM
- TGI (SK-MEL-5 melanoma): 8.58 µM
- GI50 (OVCAR-3 ovarian): 1.83 µM
- TGI (OVCAR-3 ovarian): 3.6 µM
- GI50 (HCT-116 colon): 1.42 µM
- TGI (HCT-116 colon): 2.74 µM
- GI50 (K-562 leukemia): 2.09 µM
- GI50 (T-47D breast): 2.14 µM
- TGI (T-47D breast): 9.87 µM
- GI50 (SW-620 colon): 1.25 µM
- TGI (SW-620 colon): 2.71 µM
- GI50 (MOLT-4 leukemia): 2.79 µM
- TGI (MOLT-4 leukemia): 8.13 µM
- GI50 (MDA-MB-468 breast): 1.67 µM
- TGI (MDA-MB-468 breast): 3.21 µM
- GI50 (MCF7 breast): 1.1 µM
- TGI (MCF7 breast): 2.88 µM
- GI50 (PC-3 prostate): 2.19 µM
- TGI (PC-3 prostate): 5.92 µM
- GI50 (BT-549 breast): 1.65 µM
- TGI (BT-549 breast): 3.19 µM
- GI50 (HL-60(TB) leukemia): 1.74 µM
- TGI (HL-60(TB) leukemia): 4.93 µM
- GI50 (SNB-19 CNS): 4.84 µM
- TGI (SNB-19 CNS): 16.9 µM
- GI50 (SF-295 CNS): 1.87 µM
- TGI (SF-295 CNS): 4.64 µM
- GI50 (DU-145 prostate): 3.86 µM
- TGI (DU-145 prostate): 13.8 µM
- GI50 (SNB-75 CNS): 1.58 µM
- TGI (SNB-75 CNS): 7.57 µM
- GI50 (HT29 colon): 1.78 µM
- TGI (HT29 colon): 3.85 µM
- GI50 (UO-31 renal): 1.55 µM
- TGI (UO-31 renal): 3.67 µM
- GI50 (MDA-MB-435): 1.84 µM
- TGI (MDA-MB-435): 4.48 µM
- GI50 (CCRF-CEM leukemia): 1.24 µM
- TGI (CCRF-CEM leukemia): 5.2 µM
- GI50 (UACC-62 melanoma): 1.94 µM
- TGI (UACC-62 melanoma): 4.8 µM
- GI50 (OVCAR-4 ovarian): 2.11 µM
- TGI (OVCAR-4 ovarian): 5.9 µM
- GI50 (NCI-H522 lung): 1.45 µM
- TGI (NCI-H522 lung): 2.91 µM
- GI50 (SF-268 CNS): 3.53 µM
- TGI (SF-268 CNS): 14.4 µM
- GI50 (UACC-257 melanoma): 2.04 µM
- TGI (UACC-257 melanoma): 5.28 µM
- GI50 (ACHN renal): 1.69 µM
- TGI (ACHN renal): 3.06 µM
- GI50 (SK-OV-3 ovarian): 14.4 µM
- TGI (SK-OV-3 ovarian): 27.8 µM
- GI50 (RXF 393 renal): 2.41 µM
- TGI (RXF 393 renal): 6.54 µM
- GI50 (U251 CNS): 1.66 µM
- TGI (U251 CNS): 3.09 µM
- GI50 (KM12 colon): 2.81 µM
- TGI (KM12 colon): 7.72 µM
- GI50 (SF-539 CNS): 1.76 µM
- TGI (SF-539 CNS): 3.16 µM
- GI50 (A498 renal): 13.7 µM
- TGI (A498 renal): 27 µM
- GI50 (LOX IMVI melanoma): 1.5 µM
- TGI (LOX IMVI melanoma): 2.83 µM
- GI50 (OVCAR-8 ovarian): 1.54 µM
- TGI (OVCAR-8 ovarian): 3.4 µM
- GI50 (NCI-H226 lung): 1.81 µM
- TGI (NCI-H226 lung): 3.58 µM
- GI50 (786-0 renal): 1.74 µM
- TGI (786-0 renal): 3.15 µM
- GI50 (SR leukemia): 2.44 µM
- TGI (SR leukemia): 6.51 µM
- GI50 (CAKI-1 renal): 3.06 µM
- TGI (CAKI-1 renal): 11.5 µM
- GI50 (SN12C renal): 1.48 µM
- TGI (SN12C renal): 3.18 µM
- GI50 (HOP-92 NSCLC): 2.17 µM
- TGI (HOP-92 NSCLC): 6.46 µM
- GI50 (M14 melanoma): 2.2 µM
- TGI (M14 melanoma): 5.92 µM
- GI50 (NCI-H23 lung): 3.08 µM
- TGI (NCI-H23 lung): 11.5 µM
- GI50 (EKVX NSCLC): 4.57 µM
- TGI (EKVX NSCLC): 17.2 µM
- GI50 (HS 578T breast): 2.7 µM
- TGI (HS 578T breast): 9.69 µM
- GI50 (NCI/ADR-RES ovarian): 1.67 µM
- TGI (NCI/ADR-RES ovarian): 3.55 µM
- GI50 (RPMI-8226 leukemia): 1.83 µM
- TGI (RPMI-8226 leukemia): 5.05 µM
- GI50 (IGROV1 ovarian): 2.78 µM
- TGI (IGROV1 ovarian): 10.1 µM
- GI50 (MDA-MB-231 breast): 1.92 µM
- TGI (MDA-MB-231 breast): 4.03 µM
- GI50 (TK-10 renal): 3.85 µM
- TGI (TK-10 renal): 14.9 µM
- GI50 (HCT-15 colon): 1.41 µM
- TGI (HCT-15 colon): 3.24 µM
- GI50 (SK-MEL-2 melanoma): 1.89 µM
- TGI (SK-MEL-2 melanoma): 3.89 µM
- GI50 (NCI-H460 lung): 2.02 µM
- TGI (NCI-H460 lung): 5.48 µM
- GI50 (OVCAR-5 ovarian): 2.01 µM
- TGI (OVCAR-5 ovarian): 4.9 µM
- GI50 (HOP-62 NSCLC): 10.7 µM
- TGI (HOP-62 NSCLC): 22.9 µM
- GI50 (COLO 205 colon): 1.86 µM
- TGI (COLO 205 colon): 3.47 µM

Reference: PubChem BioAssay (NCI)
